In the supplement of paper PMC10307832:

What was measured:
Assay in all cases: relative viability (nuclei count vs DMSO), 5 days (fraction); higher = more cells survive
Carboplatin + Navitoclax = compound: C1CC(C1)(C(=O)O)C(=O)O.[NH2-].[NH2-].[Pt+2] [Carboplatin] + CC1(C)CCC(c2ccc(Cl)cc2)=C(CN2CCN(c3ccc(C(=O)NS(=O)(=O)c4ccc(N[C@H](CCN5CCOCC5)CSc5ccccc5)c(S(=O)(=O)C(F)(F)F)c4)cc3)CC2)C1 [Navitoclax] (partner 0.5 µM)
How it was run: (§1)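 Lung cancer cell lines in 1536-well plates got either a single drug or a fixed anchor-drug dose together with five library-drug doses (not always all listed) in √10 steps, by pin tool, on the day after seeding. Nuclei were counted after 5 days, and relative viability is the treated-to-vehicle ratio of nuclei counts. Values are medians of duplicate plates.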

GSK126 + Vorinostat = compound: CC[C@H](C)N1C=C(C2=C(C=C(C=C21)C3=CN=C(C=C3)N4CCNCC4)C(=O)NCC5=C(C=C(NC5=O)C)C)C [GSK126] + O=C(CCCCCCC(=O)Nc1ccccc1)NO [Vorinostat] (partner 1 µM)
How it was run: as §1

Carboplatin + Vorinostat = compound: C1CC(C1)(C(=O)O)C(=O)O.[NH2-].[NH2-].[Pt+2] [Carboplatin] + O=C(CCCCCCC(=O)Nc1ccccc1)NO [Vorinostat] (partner 1 µM)
How it was run: as §1

Row | Cell Line | relative viability (Carboplatin + Navitoclax; first compound 0.08 µM) | relative viability (Carboplatin + Navitoclax; first compound 0.253 µM) | relative viability (Carboplatin + Navitoclax; first compound 0.8 µM) | relative viability (Carboplatin + Navitoclax; first compound 2.53 µM) | relative viability (Carboplatin + Navitoclax; first compound 8 µM) | relative viability (GSK126 + Vorinostat; first compound 0.08 µM) | relative viability (GSK126 + Vorinostat; first compound 0.253 µM) | relative viability (GSK126 + Vorinostat; first compound 0.8 µM) | relative viability (GSK126 + Vorinostat; first compound 2.53 µM) | relative viability (GSK126 + Vorinostat; first compound 8 µM) | relative viability (Carboplatin + Vorinostat; first compound 0.08 µM) | relative viability (Carboplatin + Vorinostat; first compound 0.253 µM) | relative viability (Carboplatin + Vorinostat; first compound 0.8 µM) | relative viability (Carboplatin + Vorinostat; first compound 2.53 µM) | relative viability (Carboplatin + Vorinostat; first compound 8 µM)
1 | 201T | 1.2 | 1.18 | 1.12 | 1.14 | 1.18 | 1.05 | 1.04 | 0.954 | 1.13 | 1.15 | 1.06 | 0.948 | 0.995 | 0.962 | 0.926
2 | A549 | 1.25 | 1.29 | 1.18 | 0.985 | 0.535 |  |  |  |  |  |  |  |  |  | 
3 | A-427 | 0.973 | 0.941 | 0.953 | 0.908 | 0.964 | 0.863 | 0.833 | 0.865 | 0.958 | 0.896 | 0.865 | 0.854 | 0.864 | 0.864 | 0.829
4 | ABC-1 |  |  |  |  |  | 1.19 | 1.08 | 1.05 | 1.11 | 1.01 | 1.53 | 1.33 | 0.834 | 1.18 | 0.407
5 | BEN | 0.0584 | 0.0591 | 0.0635 | 0.0642 | 0.0703 | 0.658 | 0.528 | 0.503 | 0.617 | 0.617 | 0.658 | 0.611 | 0.598 | 0.625 | 0.581
6 | CAL-12T | 1.2 | 1.21 | 1.23 | 1.26 | 1.09 | 0.852 | 0.814 | 0.614 | 0.777 | 0.9 | 0.606 | 0.768 | 0.733 | 0.802 | 0.891
7 | COR-L23 | 0.992 | 0.883 | 0.838 | 0.84 | 0.443 | 0.56 | 0.42 | 0.461 | 0.453 | 0.407 | 0.588 | 0.446 | 0.36 | 0.262 | 0.149
8 | COR-L 105 | 0.66 | 0.809 | 0.595 | 0.822 | 0.531 | 0.963 | 0.828 | 0.639 | 0.826 | 0.68 | 0.817 | 0.855 | 0.92 | 0.739 | 0.48
9 | Calu-6 | 0.931 | 0.77 | 0.824 | 0.737 | 0.296 |  |  |  |  |  |  |  |  |  | 
10 | ChaGo-K-1 | 1.17 | 1.01 | 0.944 | 0.798 | 0.53 | 0.767 | 0.736 | 0.747 | 0.825 | 0.763 | 0.752 | 0.704 | 0.649 | 0.577 | 0.4
11 | EBC-1 | 0.479 | 0.364 | 0.443 | 0.401 | 0.33 |  |  |  |  |  |  |  |  |  | 
12 | EKVX | 0.948 | 1.03 | 0.909 | 0.967 | 0.852 | 0.778 | 0.659 | 0.708 | 0.687 | 0.574 | 0.746 | 0.659 | 0.682 | 0.676 | 0.693
13 | EMC-BAC-2 | 1.24 | 1.11 | 1.16 | 1.12 | 1.02 | 0.427 | 0.4 | 0.442 | 0.451 | 0.499 | 0.664 | 0.416 | 0.616 | 0.536 | 0.331
